Results reported in patent US20250101041A1, “POSITIVE ALLOSTERIC MODULATORS OF THE MUSCARINIC ACETYLCHOLINE RECEPTOR M4” (Vanderbilt University, priority 2022, published 2025).

Molecular target: T1, human mAChR M4 (Homo sapiens, UniProt P08173)
T1 construct: expressed in transfected cells; host or cells: CHO-K1 (American Type Culture Collection), stably expressing hM4 and Gqi5
T1 sequence (P08173 1-479): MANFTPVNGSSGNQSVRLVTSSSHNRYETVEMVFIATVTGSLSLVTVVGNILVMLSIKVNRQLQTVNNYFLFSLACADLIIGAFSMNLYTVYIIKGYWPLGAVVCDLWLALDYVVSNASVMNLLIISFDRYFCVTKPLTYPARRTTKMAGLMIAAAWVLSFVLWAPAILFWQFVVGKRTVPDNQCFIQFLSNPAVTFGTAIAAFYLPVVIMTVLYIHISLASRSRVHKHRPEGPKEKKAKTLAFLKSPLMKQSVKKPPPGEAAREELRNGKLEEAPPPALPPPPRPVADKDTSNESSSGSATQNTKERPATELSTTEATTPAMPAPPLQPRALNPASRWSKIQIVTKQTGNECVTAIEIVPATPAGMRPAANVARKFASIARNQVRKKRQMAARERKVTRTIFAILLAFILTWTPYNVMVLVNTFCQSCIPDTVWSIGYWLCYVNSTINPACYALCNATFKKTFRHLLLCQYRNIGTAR
Test: mAChR M4 cell-based functional assay: calcium mobilization (Fluo-4, FDSS), potentiation of EC20 acetylcholine response in hM4-Gqi5 CHO-K1 cells
Conditions: human M4; for Emax at 30 µM: CHO-K1, % ACh maximum at 30 μM; for EC50: potentiation of EC20 acetylcholine response, calcium mobilization
How it was run: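 Readout is the fluorescence-ratio rise at 1 Hz on FDSS, with PAM activity taken as concentration-dependent enhancement of the EC20 acetylcholine response, fitted four-parameter for EC50/Emax. hM4-Gqi5 CHO-K1 cells carried Fluo-4 AM dye; test compounds (11 points, 1:3) preceded EC20 acetylcholine additions at 144 s and 230 s.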

| Structure (SMILES) | Emax at 30 µM [%] | EC50 [nM] |
| --- | --- | --- |
| COc1ccsc1-c1cnc2c(c1)CN(c1nn3c(=O)cc(C(F)F)nc3c(C)c1C)CC2 [Compound 1-311, 2-(difluoromethyl)-7-(3-(3-methoxythiophen-2-yl)-7,8-dihydro-1,6-naphthyridin-6(5H)-yl)-8,9-dimethyl-4H-pyrimido[1,2-b]pyridazin-4-one] | 79 | 1270 |
| Cc1c(N2CCc3ncc(-c4cccs4)cc3C2)nn2c(=O)cc(C(F)F)nc2c1C [Compound 1-312, 2-(difluoromethyl)-8,9-dimethyl-7-(3-(thiophen-2-yl)-7,8-dihydro-1,6-naphthyridin-6(5H)-yl)-4H-pyrimido[1,2-b]pyridazin-4-one] | 82 | 158 |
| COCc1cc(=O)n2nc(N3CCc4ncc(C(F)(F)F)cc4C3)c(C)cc2n1 [Compound 1-313, 2-(methoxymethyl)-8-methyl-7-(3-(trifluoromethyl)-7,8-dihydro-1,6-naphthyridin-6(5H)-yl)-4H-pyrimido[1,2-b]pyridazin-4-one] | 96 | 503 |
| COCc1cc(=O)n2nc(N3CCc4ncc(-c5ccc(C)nc5)cc4C3)c(C)cc2n1 [Compound 1-314, 2-(methoxymethyl)-8-methyl-7-(3-(6-methylpyridin-3-yl)-7,8-dihydro-1,6-naphthyridin-6(5H)-yl)-4H-pyrimido[1,2-b]pyridazin-4-one] | 96 | 109 |
| Cc1cc2nccc(=O)n2nc1N1CCc2ncc(-c3ccc(OC(F)F)nc3)cc2C1 [Compound 1-315, 7-(3-(6-(difluoromethoxy)pyridin-3-yl)-7,8-dihydro-1,6-naphthyridin-6(5H)-yl)-8-methyl-4H-pyrimido[1,2-b]pyridazin-4-one] | 71 | 448 |
| Cc1cc2nccc(=O)n2nc1N1CCc2ncc(-c3ccc(C#N)nc3)cc2C1 [Compound 1-316, 5-(6-(8-methyl-4-oxo-4H-pyrimido[1,2-b]pyridazin-7-yl)-5,6,7,8-tetrahydro-1,6-naphthyridin-3-yl)picolinonitrile] | 71 | – |
| Cc1cc(OC(F)F)ncc1-c1cnc2c(c1)CN(c1nn3c(=O)ccnc3cc1C)CC2 [Compound 1-317, 7-(3-(6-(difluoromethoxy)-4-methylpyridin-3-yl)-7,8-dihydro-1,6-naphthyridin-6(5H)-yl)-8-methyl-4H-pyrimido[1,2-b]pyridazin-4-one] | 70 | 716 |
| Cc1cc2nccc(=O)n2nc1N1CCc2ncc(-c3ccc(F)nc3F)cc2C1 [Compound 1-318, 7-(3-(2,6-difluoropyridin-3-yl)-7,8-dihydro-1,6-naphthyridin-6(5H)-yl)-8-methyl-4H-pyrimido [1,2-b]pyridazin-4-one] | 55 | 2400 |
| Cc1cc2nccc(=O)n2nc1N1CCc2ncc(-c3cnccc3C#N)cc2C1 [Compound 1-319, 3-(6-(8-methyl-4-oxo-4H-pyrimido[1,2-b]pyridazin-7-yl)-5,6,7,8-tetrahydro-1,6-naphthyridin-3-yl)isonicotinonitrile] | 34 | 2640 |
| COCc1cc(=O)n2nc(N3CCc4ncc(-c5cc(F)ncc5F)cc4C3)c(C)cc2n1 [Compound 1-320, 7-(3-(2,5-difluoropyridin-4-yl)-7,8-dihydro-1,6-naphthyridin-6(5H)-yl)-2-(methoxymethyl)-8-methyl-4H-pyrimido[1,2-b] pyridazin-4-one] | 77 | 1470 |
| Cc1cc2nccc(=O)n2nc1N1CCc2ncc(-c3cn(C)nn3)cc2C1 [Compound 1-321, 8-methyl-7-(3-(1-methyl-1H-1,2,3-triazol-4-yl)-7,8-dihydro-1,6-naphthyridin-6(5H)-yl)-4H-pyrimido[1,2-b]pyridazin-4-one] | 61 | 2180 |
| COCc1cc(=O)n2nc(N3CCc4ncc(-c5ccc(F)nc5)cc4C3)c(C)cc2n1 [Compound 1-322, 7-(3-(6-fluoropyridin-3-yl)-7,8-dihydro-1,6-naphthyridin-6(5H)-yl)-2-(methoxymethyl)-8-methyl-4H-pyrimido[1,2-b] pyridazin-4-one] | 82 | 374 |
| Cc1cc2nccc(=O)n2nc1N1CCc2ncc(-c3cnc(C)n3C)cc2C1 [Compound 1-323, 7-(3-(1,2-dimethyl-1H-imidazol-5-yl)-7,8-dihydro-1,6-naphthyridin-6(5H)-yl)-8-methyl-4H-pyrimido[1,2-b]pyridazin-4-one] | 71 | 1040 |
| COCc1cc(=O)n2nc(N3CCc4ncc(-c5cncnc5)cc4C3)c(C)cc2n1 [Compound 1-324, 2-(methoxymethyl)-8-methyl-7-(3-(pyrimidin-5-yl)-7,8-dihydro-1,6-naphthyridin-6(5H)-yl)-4H-pyrimido[1,2-b] pyridazin-4-one] | 59 | – |
| Cc1cc2nccc(=O)n2nc1N1CCc2ncc(-c3cnn4c3COCC4)cc2C1 [Compound 1-325, 7-(3-(6,7-dihydro-4H-pyrazolo[5,1-c][1,4]oxazin-3-yl)-7,8-dihydro-1,6-naphthyridin-6(5H)-yl)-8-methyl-4H-pyrimido[1,2-b]pyridazin-4-one] | 68 | 921 |
| Cc1cc2nccc(=O)n2nc1N1CCc2ncc(-c3cnc(F)c(Cl)c3)cc2C1 [Compound 1-326, 7-(3-(5-chloro-6-fluoropyridin-3-yl)-7,8-dihydro-1,6-naphthyridin-6(5H)-yl)-8-methyl-4H-pyrimido[1,2-b]pyridazin-4-one] | 49 | 1480 |
| COCc1cc(=O)n2nc(N3CCc4ncc(-c5cnc(F)cc5C)cc4C3)c(C)cc2n1 [Compound 1-327, 7-(3-(6-fluoro-4-methylpyridin-3-yl)-7,8-dihydro-1,6-naphthyridin-6(5H)-yl)-2-(methoxymethyl)-8-methyl-4H-pyrimido[1,2-b]pyridazin-4-one] | 71 | 311 |
| COCc1cc(=O)n2nc(N3CCc4ncc(-c5cc(F)ncc5C)cc4C3)c(C)cc2n1 [Compound 1-328, 7-(3-(2-fluoro-5-methylpyridin-4-yl)-7,8-dihydro-1,6-naphthyridin-6(5H)-yl)-2-(methoxymethyl)-8-methyl-4H-pyrimido[1,2-b] pyridazin-4-one] | 68 | 484 |
| Cc1cc2nccc(=O)n2nc1N1CCc2ncc(-c3cnc(Cl)cc3C(F)F)cc2C1 [Compound 1-329, 7-(3-(6-chloro-4-(difluoromethyl)pyridin-3-yl)-7,8-dihydro-1,6-naphthyridin-6(5H)-yl)-8-methyl-4H-pyrimido[1,2-b]pyridazin-4-one] | 78 | 1060 |
| COCc1cc(=O)n2nc(N3CCc4ncc(-c5ccc(F)c(F)c5)cc4C3)c(C)cc2n1 [Compound 1-330, 7-(3-(3,4-difluorophenyl)-7,8-dihydro-1,6-naphthyridin-6(5H)-yl)-2-(methoxymethyl)-8-methyl-4H-pyrimido[1,2-b] pyridazin-4-one] | 68 | 477 |
| Cc1cc2nccc(=O)n2nc1N1CCc2ncc(-c3cnc(F)c(F)c3)cc2C1 [Compound 1-331, 7-(3-(5,6-difluoropyridin-3-yl)-7,8-dihydro-1,6-naphthyridin-6(5H)-yl)-8-methyl-4H-pyrimido [1,2-b]pyridazin-4-one] | 53 | 1250 |
| COCc1cc(=O)n2nc(N3CCc4ncc(-c5cc(F)ccc5C)cc4C3)c(C)cc2n1 [Compound 1-332, 7-(3-(5-fluoro-2-methylphenyl)-7,8-dihydro-1,6-naphthyridin-6(5H)-yl)-2-(methoxymethyl)-8-methyl-4H-pyrimido[1,2-b] pyridazin-4-one] | 67 | 244 |
| Cc1cc(Cl)ncc1-c1cnc2c(c1)CN(c1nn3c(=O)ccnc3cc1C)CC2 [Compound 1-333, 7-(3-(6-chloro-4-methylpyridin-3-yl)-7,8-dihydro-1,6-naphthyridin-6(5H)-yl)-8-methyl-4H-pyrimido[1,2-b]pyridazin-4-one] | 69 | 247 |
| Cc1cc2nccc(=O)n2nc1N1CCc2ncc(-c3ccc(Cl)nn3)cc2C1 [Compound 1-334, 7-(3-(6-chloropyridazin-3-yl)-7,8-dihydro-1,6-naphthyridin-6(5H)-yl)-8-methyl-4H-pyrimido [1,2-b]pyridazin-4-one] | 45 | 1230 |
| COCc1cc(=O)n2nc(N3CCc4ncc(-c5cc(F)c(F)cc5F)cc4C3)c(C)cc2n1 [Compound 1-335, 2-(methoxymethyl)-8-methyl-7-(3-(2,4,5-trifluorophenyl)-7,8-dihydro-1,6-naphthyridin-6(5H)-yl)-4H-pyrimido[1,2-b]pyridazin-4-one] | 68 | 576 |
| COCc1cc(=O)n2nc(N3CCc4ncc(-c5cc(F)ccc5F)cc4C3)c(C)cc2n1 [Compound 1-336, 7-(3-(2,5-difluorophenyl)-7,8-dihydro-1,6-naphthyridin-6(5H)-yl)-2-(methoxymethyl)-8-methyl-4H-pyrimido[1,2-b] pyridazin-4-one] | 66 | 357 |
